From ChEMBL document CHEMBL1146125, “Ultra-potent P1 modified arylsulfonamide HIV protease inhibitors: the discovery of GW0385” (Bioorg Med Chem Lett, 2006)

How the values were obtained:
MT4 [1] = assay: Antiviral activity against HIV1 EP13 in MT4 cells; type: functional, cell-based; settings: Homo sapiens
MT4 [2] = assay: Antiviral activity against HIV1 HXB2 in MT4 cells; type: functional, cell-based; settings: Homo sapiens
MT4 [3] = assay: Antiviral activity against HIV D545701 in MT4 cells; type: functional, cell-based; settings: Homo sapiens
[4] = Clearance in rat at 1 mg/kg, iv; type: ADME, organism-based; design: dose 1 mg/kg, route intravenous; settings: in vivo
[5] = Half life in rat at 1 mg/kg; type: ADME, organism-based; design: dose 1 mg/kg; settings: in vivo
[6] = Oral bioavailability in rat at 1 mg/kg; type: ADME, organism-based; settings: in vivo
MT4 [7] = assay: Antiviral activity against HIV1 I50V in MT4 cells; type: functional, cell-based; settings: Homo sapiens
MT4 [8] = assay: Antiviral activity against multi PI resistant HIV1 31246 in MT4 cells; type: functional, cell-based; settings: Homo sapiens
MT4 [9] = assay: Antiviral activity against multi PI resistant HIV1 EP14 in MT4 cells; type: functional, cell-based; settings: Homo sapiens
MT4 [10] = assay: Antiviral activity against indinavir resistant HIV1 30813 in MT4 cells; type: functional, cell-based; settings: Homo sapiens
MT4 [11] = assay: Antiviral activity against triple multi PI resistant HIV1 in MT4 cells; type: functional, cell-based; settings: Homo sapiens
[12] = Bioavailability in rat at 1 mg/kg co-administered with 4 mg/kg ritonavir; type: ADME, organism-based; settings: in vivo
MT4 [13] = assay: Antiviral activity against HIV1 I54V in MT4 cells; type: functional, cell-based; settings: Homo sapiens
[14] = Clearance in dog at 1 mg/kg, iv; type: ADME, organism-based, Canis lupus familiaris; design: dose 1 mg/kg, route intravenous; settings: in vivo
MT4 [15] = assay: Antiviral activity against nelfinavir resistant HIV1 14330 in MT4 cells; type: functional, cell-based; settings: Homo sapiens
[16] = Half life in dog at 1 mg/kg co-administered with 4 mg/kg ritonavir; type: ADME, organism-based, Canis lupus familiaris; settings: in vivo
[17] = Bioavailability in dog at 1 mg/kg co-administered with 4 mg/kg ritonavir; type: ADME, organism-based, Canis lupus familiaris; settings: in vivo
[18] = Half life in rat at 1 mg/kg co-administered with 4 mg/kg ritonavir; type: ADME, organism-based; settings: in vivo
[19] = Oral bioavailability in dog at 1 mg/kg; type: ADME, organism-based, Canis lupus familiaris; settings: in vivo
MT4 [20] = assay: Antiviral activity against amprenavir resistant HIV1 468 in MT4 cells; type: functional, cell-based; settings: Homo sapiens
[21] = Half life in dog at 1 mg/kg; type: ADME, organism-based, Canis lupus familiaris; design: dose 1 mg/kg; settings: in vivo

Row | SMILES | IC50 (MT4 [1]) [nM] | IC50 (MT4 [2]) [nM] | IC50 (MT4 [3]) [nM] | further results
1 | CC(C)CN(C[C@@H](O)[C@H](Cc1ccc(Oc2ccc(CN3CCCC3)cc2)cc1)NC(=O)O[C@H]1CO[C@H]2OCC[C@H]21)S(=O)(=O)c1ccc2c(c1)OCO2 | 4.6 | 2.8 | 19 | –
2 | CC(C)CN(C[C@@H](O)[C@H](Cc1ccc(OCc2ccc3ccccc3n2)cc1)NC(=O)O[C@H]1CO[C@H]2OCC[C@H]21)S(=O)(=O)c1ccc2c(c1)OCO2 | 5.2 | 2.5 | 19 | –
3 | CC(=O)NCc1ccc(Oc2ccc(C[C@H](NC(=O)O[C@H]3CO[C@H]4OCC[C@H]43)[C@H](O)CN(CC(C)C)S(=O)(=O)c3ccc4c(c3)OCO4)cc2)cc1 | 3.4 | 6.2 | 6.3 | –
4 | CC(C)CN(C[C@@H](O)[C@H](Cc1ccc(Oc2ccc(CNS(C)(=O)=O)cc2)cc1)NC(=O)O[C@H]1CO[C@H]2OCC[C@H]21)S(=O)(=O)c1ccc2c(c1)OCO2 | 5.3 | 7.2 | 11 | –
5 | COC(=O)N[C@H](C(=O)N[C@@H](Cc1ccccc1)[C@@H](O)CN(Cc1ccc(-c2ccccn2)cc1)NC(=O)[C@@H](NC(=O)OC)C(C)(C)C)C(C)(C)C [ATAZANAVIR] | 93 | 25 | 70 | –
6 | CC(C)CN(C[C@@H](O)[C@H](Cc1ccc(OCc2ccccn2)cc1)NC(=O)O[C@H]1CO[C@H]2OCC[C@H]21)S(=O)(=O)c1ccc2c(c1)OCO2 | 1.2 | 1.2 | 4.5 | clearance [4]: 20 mL/min/kg; half-life [5]: 0.91 h; bioavailability [6]: 21%
7 | CC(C)CN(C[C@@H](O)[C@H](Cc1ccc(Oc2ccncn2)cc1)NC(=O)O[C@H]1CO[C@H]2OCC[C@H]21)S(=O)(=O)c1ccc2c(c1)OCO2 | 2.8 | 2 | 11 | –
8 | CC(C)CN(C[C@@H](O)[C@H](Cc1ccc(OCCn2cncn2)cc1)NC(=O)O[C@H]1CO[C@H]2OCC[C@H]21)S(=O)(=O)c1ccc2c(c1)OCO2 | 8.3 | 21 | 12 | –
9 | CC(C)CN(C[C@@H](O)[C@H](Cc1ccc(OCc2cncs2)cc1)NC(=O)O[C@H]1CO[C@H]2OCC[C@H]21)S(=O)(=O)c1ccc2c(c1)OCO2 | 2.5 | 1.9 | 6.5 | –
10 | CC(C)CN(C[C@@H](O)[C@H](Cc1ccc(Oc2ccc(CN3CCOCC3)cc2)cc1)NC(=O)O[C@H]1CO[C@H]2OCC[C@H]21)S(=O)(=O)c1ccc2c(c1)OCO2 | 2.9 | 1.2 | 13 | –
11 | CC(C)CN(C[C@@H](O)[C@H](Cc1ccc(OCc2nccs2)cc1)NC(=O)O[C@H]1CO[C@H]2OCC[C@H]21)S(=O)(=O)c1ccc2c(c1)OCO2 | 1.5 | 0.9 | 5.1 | –
12 | CC(C)CN(C[C@@H](O)[C@H](Cc1ccc(OCc2ccccc2)cc1)NC(=O)O[C@H]1CO[C@H]2OCC[C@H]21)S(=O)(=O)c1ccc2c(c1)OCO2 | 5.9 | 3.1 | 9.6 | –
13 | CC(C)CN(C[C@@H](O)[C@H](Cc1ccc(OCc2cccc(C#N)c2)cc1)NC(=O)O[C@H]1CO[C@H]2OCC[C@H]21)S(=O)(=O)c1ccc2c(c1)OCO2 | 2.2 | 1.2 | 2.2 | –
14 | COc1cccc(Oc2ccc(C[C@H](NC(=O)O[C@H]3CO[C@H]4OCC[C@H]43)[C@H](O)CN(CC(C)C)S(=O)(=O)c3ccc4c(c3)OCO4)cc2)c1 | 16 | 4.7 | 41 | –
15 | CC(C)CN(C[C@@H](O)[C@H](Cc1ccc(OCc2cscn2)cc1)NC(=O)O[C@H]1CO[C@H]2OCC[C@H]21)S(=O)(=O)c1ccc2c(c1)OCO2 | 1.2 | 0.6 | 3.5 | –
16 | CC(C)CN(C[C@@H](O)[C@H](Cc1ccccc1)NC(=O)O[C@H]1CCOC1)S(=O)(=O)c1ccc(N)cc1 | – | – | > 1000 | –
17 | CC(C)CN(C[C@@H](O)[C@H](Cc1ccc(Oc2cccnc2)cc1)NC(=O)O[C@H]1CO[C@H]2OCC[C@H]21)S(=O)(=O)c1ccc2c(c1)OCO2 | 2.4 | 1.1 | 9.5 | –

Row | SMILES | IC50 (MT4 [1]) [nM] | IC50 (MT4 [2]) [nM] | IC50 (MT4 [3]) [nM] | further results
18 | CC(C)c1nc(CN(C)C(=O)N[C@H](C(=O)N[C@@H](Cc2ccccc2)C[C@H](O)[C@H](Cc2ccccc2)NC(=O)OCc2cncs2)C(C)C)cs1 [RITONAVIR] | > 1000 | 268 | > 1000 | –
19 | COC(=O)NCc1ccc(Oc2ccc(C[C@H](NC(=O)O[C@H]3CO[C@H]4OCC[C@H]43)[C@H](O)CN(CC(C)C)S(=O)(=O)c3ccc4c(c3)OCO4)cc2)cc1 | 2.2 | 1.3 | 6.8 | –
20 | COc1ccc(Oc2ccc(C[C@H](NC(=O)O[C@H]3CO[C@H]4OCC[C@H]43)[C@H](O)CN(CC(C)C)S(=O)(=O)c3ccc4c(c3)OCO4)cc2)cc1 | 6.9 | 2.1 | 27 | –
21 | CC(C)CN(C[C@@H](O)[C@H](Cc1ccc(Oc2ccc(CO)cc2)cc1)NC(=O)O[C@H]1CO[C@H]2OCC[C@H]21)S(=O)(=O)c1ccc2c(c1)OCO2 | 1.6 | 1.6 | 8.4 | –
22 | Cc1nc(COc2ccc(C[C@H](NC(=O)O[C@H]3CO[C@H]4OCC[C@H]43)[C@H](O)CN(CC(C)C)S(=O)(=O)c3ccc4c(c3)OCO4)cc2)cs1 [BRECANAVIR] | 1.1 | – | – | clearance [4]: 10 mL/min/kg; IC50 (MT4 [7]): 1.6 nM; IC50 (MT4 [8]): 1.7 nM; IC50 (MT4 [9]): 0.77 nM; IC50 (MT4 [10]): 0.46 nM; half-life [5]: 1.4 h; IC50 (MT4 [11]): 5.4 nM; bioavailability [12]: 62%; bioavailability [6]: 10%; IC50 (MT4 [13]): 0.22 nM; clearance [14]: 19 mL/min/kg; IC50 (MT4 [15]): 0.45 nM; half-life [16]: 1.2 h; bioavailability [17]: 86%; half-life [18]: 1.1 h; bioavailability [19]: 20%; IC50 (MT4 [20]): 8.2 nM; half-life [21]: 0.87 h
23 | Cc1c(O)cccc1C(=O)N[C@@H](CSc1ccccc1)[C@H](O)CN1C[C@H]2CCCC[C@H]2C[C@H]1C(=O)NC(C)(C)C | – | – | > 1000 | –
24 | CC(C)CN(C[C@@H](O)[C@H](Cc1ccc(Oc2ccc(F)cc2)cc1)NC(=O)O[C@H]1CO[C@H]2OCC[C@H]21)S(=O)(=O)c1ccc2c(c1)OCO2 | 8.1 | 3.3 | 29 | –
25 | CC(C)CN(C[C@@H](O)[C@H](Cc1ccc(OCCc2ccsc2)cc1)NC(=O)O[C@H]1CO[C@H]2OCC[C@H]21)S(=O)(=O)c1ccc2c(c1)OCO2 | 17 | 9.5 | 44 | –
26 | CC(C)CN(C[C@@H](O)[C@H](Cc1ccc(OCCc2ccccc2)cc1)NC(=O)O[C@H]1CO[C@H]2OCC[C@H]21)S(=O)(=O)c1ccc2c(c1)OCO2 | 8.7 | 3.7 | 25 | –
27 | CC(C)(C)NC(=O)[C@@H]1C[C@@H]2CCCC[C@@H]2CN1C[C@@H](O)[C@H](Cc1ccccc1)NC(=O)[C@H](CC(N)=O)NC(=O)c1ccc2ccccc2n1 | 80 | 60 | 603 | –
28 | CC(C)CN(C[C@@H](O)[C@H](Cc1ccc(Oc2ccccc2)cc1)NC(=O)O[C@H]1CO[C@H]2OCC[C@H]21)S(=O)(=O)c1ccc2c(c1)OCO2 | 21 | 7.5 | 62 | –
29 | CC(C)CN(C[C@@H](O)[C@H](Cc1ccc(OCc2ccc3ccccc3c2)cc1)NC(=O)O[C@H]1CO[C@H]2OCC[C@H]21)S(=O)(=O)c1ccc2c(c1)OCO2 | 30 | 11 | 59 | –
30 | CC(C)CN(C[C@@H](O)[C@H](Cc1ccc(OCc2ncc[nH]2)cc1)NC(=O)O[C@H]1CO[C@H]2OCC[C@H]21)S(=O)(=O)c1ccc2c(c1)OCO2 | 20 | 69 | 16 | –
31 | CC(C)CN(C[C@@H](O)[C@H](Cc1ccc(Oc2cccc(F)c2)cc1)NC(=O)O[C@H]1CO[C@H]2OCC[C@H]21)S(=O)(=O)c1ccc2c(c1)OCO2 | 17 | 5.7 | 48 | –
32 | Cc1cccc(C)c1OCC(=O)N[C@@H](Cc1ccccc1)[C@@H](O)C[C@H](Cc1ccccc1)NC(=O)[C@H](C(C)C)N1CCCNC1=O [LOPINAVIR] | 400 | 40 | > 1000 | –
33 | CC(C)CN(C[C@@H](O)[C@H](Cc1ccc(OCCc2cccs2)cc1)NC(=O)O[C@H]1CO[C@H]2OCC[C@H]21)S(=O)(=O)c1ccc2c(c1)OCO2 | 3.4 | 2.3 | 11 | clearance [4]: 27 mL/min/kg; half-life [5]: 2.2 h; bioavailability [6]: 15%; clearance [14]: 22 mL/min/kg; bioavailability [19]: 18%; half-life [21]: 0.5 h
34 | CC(C)CN(C[C@@H](O)[C@H](Cc1ccccc1)NC(=O)O[C@H]1CO[C@H]2OCC[C@H]21)S(=O)(=O)c1ccc(N)cc1 | 6.8 | 3.9 | 32 | –
